Tests used:
[1] = 298.15 K; 101.33 kPa; Liquid; Vibrating tube method
[2] = relative permittivity at various frequencies (dimensionless); settings: 101.3 kPa, Liquid, Frequency=0.1 MHz, Coaxial cylinder capacitor
[3] = refractive index (Na D-line) (dimensionless); settings: 101.3 kPa, Liquid, Standard Abbe refractometry
[4] = refractive index (Na D-line) (dimensionless); xn = mol fraction of the nth substance listed; settings: 101.3 kPa, Liquid, Standard Abbe refractometry
[5] = relative permittivity at various frequencies (dimensionless); xn = mol fraction of the nth substance listed; settings: 101.3 kPa, Liquid, Frequency=0.1 MHz, Coaxial cylinder capacitor

OCCCCO [1,4-butanediol]
Settings | mass density [kg/m3]
[1] | 1013.4

Settings | refractive index, 298.15 K | refractive index, 308.15 K | refractive index, 318.15 K | relative permittivity, 298.15 K | relative permittivity, 308.15 K | relative permittivity, 318.15 K
[2] | – | – | – | 31.587 | 29.482 | 27.203
[3] | 1.4445 | 1.4417 | 1.4393 | – | – | –

OCCCCO [1,4-butanediol] + CC(C)CCO
Settings | refractive index, 298.15 K | refractive index, 308.15 K | refractive index, 318.15 K | relative permittivity, 298.15 K | relative permittivity, 308.15 K | relative permittivity, 318.15 K
[4], x1 = 0.101 | 1.4088 | 1.4052 | 1.4014 | – | – | –
[4], x1 = 0.2 | 1.4123 | 1.4087 | 1.4055 | – | – | –
[4], x1 = 0.299 | 1.4165 | 1.4122 | 1.4093 | – | – | –
[4], x1 = 0.4 | 1.4203 | 1.4166 | 1.4137 | – | – | –
[4], x1 = 0.5 | 1.4244 | 1.4207 | 1.4175 | – | – | –
[4], x1 = 0.6 | 1.4291 | 1.4252 | 1.4222 | – | – | –
[4], x1 = 0.699 | 1.4325 | 1.4295 | 1.426 | – | – | –
[4], x1 = 0.801 | 1.4372 | 1.4336 | 1.4309 | – | – | –
[4], x1 = 0.9 | 1.4409 | 1.4376 | 1.4353 | – | – | –
[4], x1 = 1 | 1.4445 | 1.4417 | 1.4393 | – | – | –
[5], x1 = 0.101 | – | – | – | 15.856 | 14.411 | 13.099
[5], x1 = 0.2 | – | – | – | 16.963 | 15.522 | 14.197
[5], x1 = 0.299 | – | – | – | 18.26 | 16.765 | 15.4
[5], x1 = 0.4 | – | – | – | 19.772 | 18.22 | 16.76
[5], x1 = 0.5 | – | – | – | 21.409 | 19.78 | 18.225
[5], x1 = 0.6 | – | – | – | 23.176 | 21.499 | 19.794
[5], x1 = 0.699 | – | – | – | 25.066 | 23.351 | 21.52
[5], x1 = 0.801 | – | – | – | 27.119 | 25.335 | 23.403
[5], x1 = 0.9 | – | – | – | 29.28 | 27.371 | 25.287
[5], x1 = 1 | – | – | – | 31.587 | 29.482 | 27.203

C1COCCO1 [1,4-dioxane] + CC(C)CCO
x2 = 0
Settings | refractive index, 298.15 K | refractive index, 308.15 K | refractive index, 318.15 K | relative permittivity, 298.15 K | relative permittivity, 308.15 K | relative permittivity, 318.15 K
[4] | 1.4202 | 1.4144 | 1.4086 | – | – | –
[5] | – | – | – | 2.229 | 2.209 | 2.187
